From US11912701B2, “Protein kinase inhibitors for promoting liver regeneration or reducing or preventing hepatocyte death” (HEPAREGENIX GMBH, priority 2018, dated 2024)

Experiments:
Format in all cases: biochemical
MKK4 = target: T1, MKK4 (Homo sapiens, UniProt P45985); experiment: 33PanQinase enzyme assay, MKK4; conditions: assay 'IC50'; read-out: Potency MKK4 (IC50)
T1 construct: purchased ProQinase GmbH, Freiburg, Germany (33PanQinase Assay Service)
T1 sequence (P45985 1-399): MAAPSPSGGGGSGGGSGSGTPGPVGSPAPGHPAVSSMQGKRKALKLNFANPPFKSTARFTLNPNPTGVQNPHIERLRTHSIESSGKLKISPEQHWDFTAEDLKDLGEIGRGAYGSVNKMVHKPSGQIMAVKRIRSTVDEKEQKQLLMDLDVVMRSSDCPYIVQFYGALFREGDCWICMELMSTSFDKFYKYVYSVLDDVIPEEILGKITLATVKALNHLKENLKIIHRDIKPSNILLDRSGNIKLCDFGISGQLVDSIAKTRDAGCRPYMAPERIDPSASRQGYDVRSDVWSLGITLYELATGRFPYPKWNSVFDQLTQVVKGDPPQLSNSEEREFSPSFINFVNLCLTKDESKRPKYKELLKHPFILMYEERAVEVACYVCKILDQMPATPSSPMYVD
Description: (§1) The kinase activities of the compounds of the invention were measured using the 33PanQinase® Assay Service provided by ProQinase GmbH, Freiburg, Germany. Details of the assay conditions are disclosed on the website of ProQinase (https://www.proginase.com/products-services-biochemical-assay-services/kinase-assays). In brief, all kinase assays were performed in 96-well FlashPlates™ from PerkinElmer (Boston, MA, USA) in a 50 μl reaction volume. The reaction cocktail was pipetted in four steps in the following order: • 20 μl of assay buffer (standard buffer) • 5 μl of ATP solution (in H2O) • 5 μl of test compound (in 10% DMSO) • 20 μl enzyme/subtrate mix
(§2) The reaction cocktails were incubated at 30° C. for 60 minutes. The reaction is stopped with 50 μl of 2% (v/v) H3PO4, plates were aspirated and washed two times with 200 μl 0.9% (w/v) NaCl. Incorporation of ^33Pi was determined with a microplate scintillation counter (Microbeta, Wallac).
(§3) All assays were performed with a BeckmanCoulter/SAGIAN™ Core System.
(§4) In case of single concentration assays, the potency of the test compound is expressed as % residual activity. […] The fitting method used was a least-squares fit.
Inhibition potency against MKK4 is categorized as follows:
Assay at single concentration (100 nM):

BRaf = target: T2, BRaf (Homo sapiens, UniProt P15056); experiment: 33PanQinase enzyme assay, BRaf; conditions: ratio IC50(BRaf)/IC50(MKK4)
T2 construct: purchased ProQinase GmbH, Freiburg, Germany (33PanQinase Assay Service)
Description: as §1, §2, §3, §4
(§5) Selectivity of test compounds against BRaf, JNK1 and MKK7, altogether denominated as off-targets was calculated by the ratio of IC50 (off-target)/IC50 (MKK4) and categorized as follows: […]

JNK1 = JNK1 (Homo sapiens, UniProt P45983); experiment: 33PanQinase enzyme assay, JNK1; set-up: purchased ProQinase GmbH, Freiburg, Germany (33PanQinase Assay Service); conditions: ratio IC50(JNK1)/IC50(MKK4)
Description: as §1, §2, §3, §4, §5

MKK7 = target: T3, MKK7 (Homo sapiens, UniProt O14733); experiment: 33PanQinase enzyme assay, MKK7; set-up: purchased ProQinase GmbH, Freiburg, Germany (33PanQinase Assay Service); conditions: ratio IC50(MKK7)/IC50(MKK4)
T3 sequence (O14733 1-419): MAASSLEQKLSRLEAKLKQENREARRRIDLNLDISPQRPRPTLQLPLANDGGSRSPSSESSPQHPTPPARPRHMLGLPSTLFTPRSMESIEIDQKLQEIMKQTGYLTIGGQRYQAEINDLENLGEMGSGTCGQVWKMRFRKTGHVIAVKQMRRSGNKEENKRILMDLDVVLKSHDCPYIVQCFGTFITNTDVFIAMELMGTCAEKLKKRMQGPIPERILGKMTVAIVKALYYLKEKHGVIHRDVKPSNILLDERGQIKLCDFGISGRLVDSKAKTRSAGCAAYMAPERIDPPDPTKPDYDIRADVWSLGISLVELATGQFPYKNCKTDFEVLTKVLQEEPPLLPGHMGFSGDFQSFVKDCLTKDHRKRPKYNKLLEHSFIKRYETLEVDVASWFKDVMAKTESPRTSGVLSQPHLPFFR
Description: as §1, §2, §3, §4, §5

T2 sequence (P15056 whole entry, species assumed): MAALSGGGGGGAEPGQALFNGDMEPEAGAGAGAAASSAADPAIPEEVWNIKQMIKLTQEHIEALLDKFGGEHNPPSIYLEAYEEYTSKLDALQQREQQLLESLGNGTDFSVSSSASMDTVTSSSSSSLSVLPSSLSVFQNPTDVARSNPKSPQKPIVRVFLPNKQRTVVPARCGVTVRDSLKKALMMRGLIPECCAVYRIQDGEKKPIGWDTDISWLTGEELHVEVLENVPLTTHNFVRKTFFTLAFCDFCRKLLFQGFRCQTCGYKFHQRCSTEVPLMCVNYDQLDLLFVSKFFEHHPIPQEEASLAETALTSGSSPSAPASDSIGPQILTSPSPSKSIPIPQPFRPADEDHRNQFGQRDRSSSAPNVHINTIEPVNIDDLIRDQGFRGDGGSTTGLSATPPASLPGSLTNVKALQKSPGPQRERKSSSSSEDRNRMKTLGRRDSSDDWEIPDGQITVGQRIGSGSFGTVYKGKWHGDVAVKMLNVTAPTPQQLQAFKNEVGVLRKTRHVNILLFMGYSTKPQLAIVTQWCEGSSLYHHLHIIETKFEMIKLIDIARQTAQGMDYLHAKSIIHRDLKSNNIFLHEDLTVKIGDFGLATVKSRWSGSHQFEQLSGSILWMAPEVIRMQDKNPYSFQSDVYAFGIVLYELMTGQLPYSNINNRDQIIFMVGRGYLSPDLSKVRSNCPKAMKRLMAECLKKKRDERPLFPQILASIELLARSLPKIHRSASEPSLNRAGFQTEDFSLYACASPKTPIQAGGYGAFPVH
JNK1, sequence (P45983 whole entry): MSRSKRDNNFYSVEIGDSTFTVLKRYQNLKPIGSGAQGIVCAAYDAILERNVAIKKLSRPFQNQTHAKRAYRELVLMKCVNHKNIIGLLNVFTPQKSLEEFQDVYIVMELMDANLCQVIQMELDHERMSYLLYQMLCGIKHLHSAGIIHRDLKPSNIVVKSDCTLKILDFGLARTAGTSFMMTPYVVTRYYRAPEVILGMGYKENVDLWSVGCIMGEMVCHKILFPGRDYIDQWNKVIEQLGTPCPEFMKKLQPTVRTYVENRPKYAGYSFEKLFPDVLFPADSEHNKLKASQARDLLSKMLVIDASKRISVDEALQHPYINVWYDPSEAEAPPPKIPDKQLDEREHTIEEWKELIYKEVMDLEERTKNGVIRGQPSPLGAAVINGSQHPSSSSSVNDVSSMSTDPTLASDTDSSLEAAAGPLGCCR

| Compound | IC50 (MKK4) | Selectivity Braf, IC50(off-target)/IC50(MKK4) (BRaf) | Selectivity JNK1, IC50(off-target)/IC50(MKK4) (JNK1) | Selectivity IVIKK7, IC50(off-target)/IC50(MKK4) (MKK7) |
| --- | --- | --- | --- | --- |
| CCCS(=O)(=O)Nc1ccc(F)c(C(=O)c2c[nH]c3ncc(-c4cncnc4)cc23)c1F [Example 91, N-(2,4-difluoro-3-(5-(pyrimidin-5-yl)-1H-pyrrolo[2,3-b]pyridine-3-carbonyl)phenyl)propane-1-sulfonamide] | 1000 to 10000 nM | ◯ (3 ≥ IC50(off-target)/IC50(MKK4)) | ◯ (3 ≥ IC50(off-target)/IC50(MKK4)) | ++ (100 ≥ IC50(off-target)/IC50(MKK4) > 10) |
| CCCS(=O)(=O)Nc1ccc(F)c(C(=O)c2c[nH]c3ncc(-c4ccc(P(C)(C)=O)cc4)cc23)c1F [Example 93, N-(3-(5-(4-(dimethylphosphoryl)phenyl)-1H-pyrrolo[2,3-b]pyridine-3-carbonyl)-2,4-difluorophenyl)propane-1-sulfonamide] | 100 to 1000 nM | ◯ (3 ≥ IC50(off-target)/IC50(MKK4)) | ++ (100 ≥ IC50(off-target)/IC50(MKK4) > 10) | +++ (IC50(off-target)/IC50(MKK4) > 100) |
| CCCS(=O)(=O)Nc1ccc(F)c(C(=O)c2c[nH]c3ncc(-c4ccc(N(C)C)cc4)cc23)c1F [Example 98, N-(3-(5-(4-(dimethylamino)phenyl)-1H-pyrrolo[2,3-b]pyridine-3-carbonyl)-2,4-difluorophenyl)propane-1-sulfonamide] | 1000 to 10000 nM | ◯ (3 ≥ IC50(off-target)/IC50(MKK4)) | + (10 ≥ IC50(off-target)/IC50(MKK4) > 3) | ++ (100 ≥ IC50(off-target)/IC50(MKK4) > 10) |
| CCCS(=O)(=O)Nc1ccc(F)c(C(=O)c2c[nH]c3ncc(-c4ccc(NC(C)=O)cc4)cc23)c1F [Example 116, N-(4-(3-(2,6-difluoro-3-(propylsulfonamido)benzoyl)-1H-pyrrolo[2,3-b]pyridin-5-yl)phenyl)acetamide] | 100 to 1000 nM | ◯ (3 ≥ IC50(off-target)/IC50(MKK4)) | ◯ (3 ≥ IC50(off-target)/IC50(MKK4)) | +++ (IC50(off-target)/IC50(MKK4) > 100) |
| CCCS(=O)(=O)Nc1ccc(F)c(C(=O)c2c[nH]c3ncc(-c4cccc(C(F)(F)F)c4)cc23)c1F [Example 117, N-(2,4-difluoro-3-(5-(3-(trifluoromethyl)phenyl)-1H-pyrrolo[2,3-b]pyridine-3-carbonyl)phenyl)propane-1-sulfonamide] | 1000 to 10000 nM | ◯ (3 ≥ IC50(off-target)/IC50(MKK4)) | ◯ (3 ≥ IC50(off-target)/IC50(MKK4)) | +++ (IC50(off-target)/IC50(MKK4) > 100) |
| CCCS(=O)(=O)Nc1ccc(F)c(C(=O)c2c[nH]c3ncc(-c4ccccc4C#N)cc23)c1F [Example 118, N-(3-(5-(2-cyanophenyl)-1H-pyrrolo[2,3-b]pyridine-3-carbonyl)-2,4-difluorophenyl)propane-1-sulfonamide] | 100 to 1000 nM | ◯ (3 ≥ IC50(off-target)/IC50(MKK4)) | + (10 ≥ IC50(off-target)/IC50(MKK4) > 3) | +++ (IC50(off-target)/IC50(MKK4) > 100) |

The remaining lines, values ahead:

| IC50 (MKK4) | Selectivity Braf, IC50(off-target)/IC50(MKK4) (BRaf) | Selectivity JNK1, IC50(off-target)/IC50(MKK4) (JNK1) | Selectivity IVIKK7, IC50(off-target)/IC50(MKK4) (MKK7) | Compound |
| --- | --- | --- | --- | --- |
| < 100 nM | ◯ (3 ≥ IC50(off-target)/IC50(MKK4)) | + (10 ≥ IC50(off-target)/IC50(MKK4) > 3) | +++ (IC50(off-target)/IC50(MKK4) > 100) | CCCS(=O)(=O)Nc1ccc(F)c(C(=O)c2c[nH]c3ncc(C(=O)NOCCO)cc23)c1F [Example 94, 3-(2,6-difluoro-3-(propylsulfonamido)benzoyl)-N-(2-hydroxyethoxy)-1H-pyrrolo[2,3-b]pyridine-5-carboxamide] |
| 100 to 1000 nM | ◯ (3 ≥ IC50(off-target)/IC50(MKK4)) | ◯ (3 ≥ IC50(off-target)/IC50(MKK4)) | +++ (IC50(off-target)/IC50(MKK4) > 100) | CCCS(=O)(=O)Nc1ccc(F)c(C(=O)c2c[nH]c3ncc(-c4ccc5c(c4)C=C(C)N=S5(C)=O)cc23)c1F (stereo not shown) [Example 95, N-(3-(5-(1,3-dimethyl-1-oxido-1l4-benzo[e][1,2]thiazin-6-yl)-1H-pyrrolo[2,3-b]pyridine-3-carbonyl)-2,4-difluorophenyl)propane-1-sulfonamide] |
| 100 to 1000 nM | ◯ (3 ≥ IC50(off-target)/IC50(MKK4)) | + (10 ≥ IC50(off-target)/IC50(MKK4) > 3) | +++ (IC50(off-target)/IC50(MKK4) > 100) | CCCS(=O)(=O)Nc1ccc(F)c(C(=O)c2c[nH]c3ncc(-c4ccccc4C(F)(F)F)cc23)c1F [Example 97, N-(2,4-difluoro-3-(5-(2-(trifluoromethyl)phenyl)-1H-pyrrolo[2,3-b]pyridine-3-carbonyl)phenyl)propane-1-sulfonamide] |
| 100 to 1000 nM | ◯ (3 ≥ IC50(off-target)/IC50(MKK4)) | ◯ (3 ≥ IC50(off-target)/IC50(MKK4)) | +++ (IC50(off-target)/IC50(MKK4) > 100) | CCCS(=O)(=O)Nc1ccc(F)c(C(=O)c2c[nH]c3ncc(-c4ccc5ccccc5c4)cc23)c1F [Example 99, N-(2,4-difluoro-3-(5-(naphthalen-2-yl)-1H-pyrrolo[2,3-b]pyridine-3-carbonyl)phenyl)propane-1-sulfonamide] |
| 100 to 1000 nM | ◯ (3 ≥ IC50(off-target)/IC50(MKK4)) | + (10 ≥ IC50(off-target)/IC50(MKK4) > 3) | +++ (IC50(off-target)/IC50(MKK4) > 100) | CCCS(=O)(=O)Nc1ccc(F)c(C(=O)c2c[nH]c3ncc(-c4ccc(C(C)(C)C)cc4)cc23)c1F [Example 113, N-(3-(5-(4-(tert-butyl)phenyl)-1H-pyrrolo[2,3-b]pyridine-3-carbonyl)-2,4-difluorophenyl)propane-1-sulfonamide] |
| 100 to 1000 nM | ◯ (3 ≥ IC50(off-target)/IC50(MKK4)) | + (10 ≥ IC50(off-target)/IC50(MKK4) > 3) | +++ (IC50(off-target)/IC50(MKK4) > 100) | CCCS(=O)(=O)Nc1ccc(F)c(C(=O)c2c[nH]c3ncc(-c4cccc(C)c4)cc23)c1F [Example 114, N-(2,4-difluoro-3-(5-(m-tolyl)-1H-pyrrolo[2,3-b]pyridine-3-carbonyl)phenyl)propane-1-sulfonamide] |
| 100 to 1000 nM | ◯ (3 ≥ IC50(off-target)/IC50(MKK4)) | + (10 ≥ IC50(off-target)/IC50(MKK4) > 3) | +++ (IC50(off-target)/IC50(MKK4) > 100) | CCCS(=O)(=O)Nc1ccc(F)c(C(=O)c2c[nH]c3ncc(-c4cccc(F)c4)cc23)c1F [Example 115, N-(2,4-difluoro-3-(5-(3-fluorophenyl)-1H-pyrrolo[2,3-b]pyridine-3-carbonyl)phenyl)propane-1-sulfonamide] |
